Test results as given in patent US12077503B2, “Substituted cyclic amides and their use as herbicides” (FMC CORPORATION, priority 2015, dated 2024).

Columns and labels:
Type in all cases: in vivo
[1] = system: ivy-leaved morning glory (Ipomoea hederacea); assay: Test G Post-Emergence Protocol; conditions: Ipomoea, post-emergence, 312 h; for pest or weed control at 15.625 g/ha: 15.625 g ai/ha, evaluated after 13 days (100=total damage to plant; 0=no damage to plant), read-out: Morningglory, Ivy-leaved damage rating; for pest or weed control at 62.5 g/ha: 62.5 g ai/ha, read-out: Morningglory, Ivy-leaved damage rating (100=total damage to plant; 0=no damage to plant); for pest or weed control at 62.5 g/ha / pest or weed control at 250 g/ha: evaluated after 13 days; for pest or weed control at 250 g/ha: 250 g ai/ha, read-out: damage to plant, Morningglory, Ivy-leaved (100=total damage to plant; 0=no damage to plant)
How it was run: (§1)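 Scores run 0 (no damage) to 100 (total damage) and were taken 13 days after spraying. Plants had been raised in pots for 8 days under glasshouse control (24/16 °C, 14 h photoperiod, 65% humidity) and then treated at 15.625, 62.5 or 250 g/ha.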

[2] = system: barnyardgrass (Echinochloa crus-galli); assay: Test G Post-Emergence Protocol; conditions: Echinochloa crus-galli, post-emergence, 312 h; for pest or weed control at 15.625 g/ha: 15.625 g ai/ha, evaluated after 13 days (100=total damage to plant; 0=no damage to plant), read-out: Barnyardgrass damage rating; for pest or weed control at 62.5 g/ha: 62.5 g ai/ha, read-out: Barnyardgrass damage rating (100=total damage to plant; 0=no damage to plant); for pest or weed control at 62.5 g/ha / pest or weed control at 250 g/ha: evaluated after 13 days; for pest or weed control at 250 g/ha: 250 g ai/ha, read-out: damage to plant, Barnyardgrass (100=total damage to plant; 0=no damage to plant)
How it was run: as §1

[3] = system: velvetleaf (Abutilon theophrasti); assay: Test G Post-Emergence Protocol; conditions: Abutilon theophrasti, post-emergence, 312 h; for pest or weed control at 15.625 g/ha: 15.625 g ai/ha, evaluated after 13 days (100=total damage to plant; 0=no damage to plant), read-out: Velvetleaf damage rating; for pest or weed control at 62.5 g/ha: 62.5 g ai/ha, read-out: Velvetleaf damage rating (100=total damage to plant; 0=no damage to plant); for pest or weed control at 62.5 g/ha / pest or weed control at 250 g/ha: evaluated after 13 days; for pest or weed control at 250 g/ha: 250 g ai/ha, read-out: damage to plant, Velvetleaf (100=total damage to plant; 0=no damage to plant)
How it was run: as §1

[4] = system: redroot pigweed (Amaranthus retroflexus); assay: Test G Post-Emergence Protocol; conditions: Amaranthus retroflexus, post-emergence, 312 h; for pest or weed control at 15.625 g/ha: 15.625 g ai/ha, evaluated after 13 days (100=total damage to plant; 0=no damage to plant), read-out: Pigweed, Redroot damage rating; for pest or weed control at 62.5 g/ha: 62.5 g ai/ha, read-out: Pigweed, Redroot damage rating (100=total damage to plant; 0=no damage to plant); for pest or weed control at 62.5 g/ha / pest or weed control at 250 g/ha: evaluated after 13 days; for pest or weed control at 250 g/ha: 250 g ai/ha, read-out: damage to plant, Pigweed, Redroot (100=total damage to plant; 0=no damage to plant)
How it was run: as §1

corn (Zea mays) [5] = assay: Test G Post-Emergence Protocol; conditions: Zea mays, post-emergence, 312 h; for plant injury at 15.625 g/ha: 15.625 g ai/ha, evaluated after 13 days (100=total damage to plant; 0=no damage to plant), read-out: Corn damage rating; for plant injury at 62.5 g/ha: 62.5 g ai/ha, read-out: Corn damage rating (100=total damage to plant; 0=no damage to plant); for plant injury at 62.5 g/ha / plant injury at 250 g/ha: evaluated after 13 days; for plant injury at 250 g/ha: 250 g ai/ha, read-out: damage to plant, Corn (100=total damage to plant; 0=no damage to plant)
How it was run: as §1

[6] = system: giant foxtail (Setaria faberi); assay: Test G Post-Emergence Protocol; conditions: Setaria faberi, post-emergence, 312 h; for pest or weed control at 15.625 g/ha: 15.625 g ai/ha, evaluated after 13 days (100=total damage to plant; 0=no damage to plant), read-out: Foxtail, Giant damage rating; for pest or weed control at 62.5 g/ha: 62.5 g ai/ha, read-out: Foxtail, Giant damage rating (100=total damage to plant; 0=no damage to plant); for pest or weed control at 62.5 g/ha / pest or weed control at 250 g/ha: evaluated after 13 days; for pest or weed control at 250 g/ha: 250 g ai/ha, read-out: damage to plant, Foxtail, Giant (100=total damage to plant; 0=no damage to plant)
How it was run: as §1

[7] = system: ivy-leaved morning glory (Ipomoea hederacea); assay: Test G Pre-Emergence Protocol; conditions: Ipomoea, pre-emergence, 312 h, evaluated after 13 days; for pest or weed control at 15.625 g/ha: 15.625 g ai/ha, read-out: Morning-glory, Ivy-leaved damage rating (100=total damage to plant; 0=no damage to plant); for pest or weed control at 62.5 g/ha: 62.5 g ai/ha, 100=total damage to plant, 0=no damage to plant, read-out: plant damage rating, Morningglory, Ivy-leaved; for pest or weed control at 250 g/ha: 250 g ai/ha, read-out: Morningglory, Ivy-leaved damage rating (100=total damage to plant; 0=no damage to plant)
How it was run: (§2)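 Herbicidal effect was rated 13 days post-application on a scale where 100 equals total damage. Spraying took place the day after sowing, using 15.625, 62.5 or 250 g/ha of compound in a 50:50 acetone/water solution with 0.5% Tween 20.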

[8] = system: barnyardgrass (Echinochloa crus-galli); assay: Test G Pre-Emergence Protocol; conditions: Echinochloa crus-galli, pre-emergence, 312 h, evaluated after 13 days; for pest or weed control at 15.625 g/ha: 15.625 g ai/ha, read-out: Barnyard grass damage rating (100=total damage to plant; 0=no damage to plant); for pest or weed control at 62.5 g/ha: 62.5 g ai/ha, 100=total damage to plant, 0=no damage to plant, read-out: plant damage rating, Barnyardgrass; for pest or weed control at 250 g/ha: 250 g ai/ha, read-out: Barnyardgrass damage rating (100=total damage to plant; 0=no damage to plant)
How it was run: as §2

[9] = system: velvetleaf (Abutilon theophrasti); assay: Test G Pre-Emergence Protocol; conditions: Abutilon theophrasti, pre-emergence, 312 h, evaluated after 13 days; for pest or weed control at 15.625 g/ha: 15.625 g ai/ha; for pest or weed control at 15.625 g/ha / pest or weed control at 250 g/ha: read-out: Velvetleaf damage rating (100=total damage to plant; 0=no damage to plant); for pest or weed control at 62.5 g/ha: 62.5 g ai/ha, 100=total damage to plant, 0=no damage to plant, read-out: plant damage rating, Velvetleaf; for pest or weed control at 250 g/ha: 250 g ai/ha
How it was run: as §2

[10] = system: redroot pigweed (Amaranthus retroflexus); assay: Test G Pre-Emergence Protocol; conditions: Amaranthus retroflexus, pre-emergence, 312 h, evaluated after 13 days; for pest or weed control at 15.625 g/ha: 15.625 g ai/ha; for pest or weed control at 15.625 g/ha / pest or weed control at 250 g/ha: read-out: Pigweed, Redroot damage rating (100=total damage to plant; 0=no damage to plant); for pest or weed control at 62.5 g/ha: 62.5 g ai/ha, 100=total damage to plant, 0=no damage to plant, read-out: plant damage rating, Pigweed, Redroot; for pest or weed control at 250 g/ha: 250 g ai/ha
How it was run: as §2

corn (Zea mays) [11] = assay: Test G Pre-Emergence Protocol; conditions: Zea mays, pre-emergence, 312 h, evaluated after 13 days; for plant injury at 15.625 g/ha: 15.625 g ai/ha; for plant injury at 15.625 g/ha / plant injury at 250 g/ha: read-out: Corn damage rating (100=total damage to plant; 0=no damage to plant); for plant injury at 62.5 g/ha: 62.5 g ai/ha, 100=total damage to plant, 0=no damage to plant, read-out: plant damage rating, Corn; for plant injury at 250 g/ha: 250 g ai/ha
How it was run: as §2

[12] = system: giant foxtail (Setaria faberi); assay: Test G Pre-Emergence Protocol; conditions: Setaria faberi, pre-emergence, 312 h, evaluated after 13 days; for pest or weed control at 15.625 g/ha: 15.625 g ai/ha; for pest or weed control at 15.625 g/ha / pest or weed control at 250 g/ha: read-out: Foxtail, Giant damage rating (100=total damage to plant; 0=no damage to plant); for pest or weed control at 62.5 g/ha: 62.5 g ai/ha, 100=total damage to plant, 0=no damage to plant, read-out: plant damage rating, Foxtail, Giant; for pest or weed control at 250 g/ha: 250 g ai/ha
How it was run: as §2

SMILES | pest or weed control at 15.625 g/ha [1] [%] | pest or weed control at 62.5 g/ha [1] [%] | pest or weed control at 250 g/ha [1] [%] | pest or weed control at 15.625 g/ha [2] [%] | pest or weed control at 62.5 g/ha [2] [%] | pest or weed control at 250 g/ha [2] [%] | pest or weed control at 15.625 g/ha [3] [%] | pest or weed control at 62.5 g/ha [3] [%] | pest or weed control at 250 g/ha [3] [%] | pest or weed control at 15.625 g/ha [4] [%] | pest or weed control at 62.5 g/ha [4] [%] | pest or weed control at 250 g/ha [4] [%] | plant injury at 15.625 g/ha (corn (Zea mays) [5]) [%] | plant injury at 62.5 g/ha (corn (Zea mays) [5]) [%] | plant injury at 250 g/ha (corn (Zea mays) [5]) [%] | pest or weed control at 15.625 g/ha [6] [%] | pest or weed control at 62.5 g/ha [6] [%] | pest or weed control at 250 g/ha [6] [%] | pest or weed control at 15.625 g/ha [7] [%] | pest or weed control at 62.5 g/ha [7] [%] | also measured
CN1C[C@@H](c2ccc(C(F)(F)F)cc2)[C@H](C(=O)Nc2ccn[nH]2)C1=O (racemic) [Compound 1573] | 0 | 0 | 0 | 0 | 0 | 0 | 0 | 0 | 0 | 0 | 0 | 0 | 0 | 0 | 0 | 0 | 0 | 0 | 0 | 0 | pest or weed control at 250 g/ha [7]: 0%; pest or weed control at 15.625 g/ha [8]: 0%; pest or weed control at 62.5 g/ha [8]: 0%; pest or weed control at 250 g/ha [8]: 0%; pest or weed control at 15.625 g/ha [9]: 0%; pest or weed control at 62.5 g/ha [9]: 0%; pest or weed control at 250 g/ha [9]: 0%; pest or weed control at 15.625 g/ha [10]: 0%; pest or weed control at 62.5 g/ha [10]: 0%; pest or weed control at 250 g/ha [10]: 0%; plant injury at 15.625 g/ha (corn (Zea mays) [11]): 0%; plant injury at 62.5 g/ha (corn (Zea mays) [11]): 0%; plant injury at 250 g/ha (corn (Zea mays) [11]): 0%; pest or weed control at 15.625 g/ha [12]: 0%; pest or weed control at 62.5 g/ha [12]: 0%; pest or weed control at 250 g/ha [12]: 0%
CN1C[C@H](c2ccc(C(C)(C)C#N)cc2)[C@@H](C(=O)Nc2ccccc2F)C1=O (racemic) [Compound 1408] | 0 | 0 | 20 | 0 | 0 | 40 | 0 | 0 | 10 | 0 | 0 | 0 | 0 | 0 | 20 | 0 | 0 | 60 | 0 | 0 | pest or weed control at 250 g/ha [7]: 0%; pest or weed control at 15.625 g/ha [8]: 0%; pest or weed control at 62.5 g/ha [8]: 0%; pest or weed control at 250 g/ha [8]: 20%; pest or weed control at 15.625 g/ha [9]: 0%; pest or weed control at 62.5 g/ha [9]: 0%; pest or weed control at 250 g/ha [9]: 0%; pest or weed control at 15.625 g/ha [10]: 0%; pest or weed control at 62.5 g/ha [10]: 0%; pest or weed control at 250 g/ha [10]: 10%; plant injury at 15.625 g/ha (corn (Zea mays) [11]): 0%; plant injury at 62.5 g/ha (corn (Zea mays) [11]): 0%; plant injury at 250 g/ha (corn (Zea mays) [11]): 10%; pest or weed control at 15.625 g/ha [12]: 0%; pest or weed control at 62.5 g/ha [12]: 20%; pest or weed control at 250 g/ha [12]: 70%
